ChEMBL document CHEMBL1201862, “PubChem BioAssay data set” (2004)
The source made the active and inactive calls.

Legend:
[1] = target: T1, Heat shock factor protein 1 (Mus musculus, UniProt P38532); experiment: HSF1 potentiators in luciferase reporter cells, confirmation, cell-based, NIH3T3, luminescence, dose retest (AID 435004); type: functional;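 also: stress induced by proteasome inhibitor MG132 added 30 min after compound; luciferase reporter driven by HSF1 response element in NIH3T3 cells; actives raise luminescence as potentiators of the MG132 stress response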
T1 sequence (P38532 whole entry): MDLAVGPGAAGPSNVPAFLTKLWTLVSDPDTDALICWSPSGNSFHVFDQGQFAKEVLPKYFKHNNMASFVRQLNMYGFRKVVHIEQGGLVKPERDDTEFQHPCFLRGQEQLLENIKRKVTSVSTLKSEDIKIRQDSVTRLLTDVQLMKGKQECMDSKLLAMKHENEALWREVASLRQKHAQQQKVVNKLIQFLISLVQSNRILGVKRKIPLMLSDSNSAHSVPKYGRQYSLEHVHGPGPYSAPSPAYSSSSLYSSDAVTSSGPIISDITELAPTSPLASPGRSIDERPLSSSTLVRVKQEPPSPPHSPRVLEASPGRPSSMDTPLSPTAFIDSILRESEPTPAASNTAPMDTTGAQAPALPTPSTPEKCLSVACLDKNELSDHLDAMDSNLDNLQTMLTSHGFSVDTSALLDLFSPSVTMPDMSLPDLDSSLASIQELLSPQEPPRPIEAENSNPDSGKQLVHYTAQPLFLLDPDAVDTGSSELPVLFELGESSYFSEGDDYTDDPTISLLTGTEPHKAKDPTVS

[2] = system: Jurkat; experiment: SAR Analysis of small molecule inhibitors of T-cell specific antigen receptor-induced NF-kB activation in a Jurkat cell line using a luminescence assay - Set 2. [Related pubchem assays (depositor defined):AID435003, AID435012, AID465]; type: functional, cell-based; conditions: Homo sapiens
[3] = system: HEK293; experiment: cytotoxicity in HEK293T NF-kB-Luc cells, SAR follow-up, cytotoxicity control for NF-kB activator project, cell-based, resazurin fluorescence (AID 493251); type: functional; conditions: Homo sapiens
[4] = Luminescence Cell-Based Dose Response HTS to Identify Inhibitors of 5'UTR Stem-Loop Driven Prion Protein mRNA Translation in H4 Neuroglioblastoma Cells. [Related pubchem assays: 1827 (Project Summary), 1813 (Primary HTS)]; type: functional
[5] = target: T2, Beta-2 adrenergic receptor (Homo sapiens, UniProt P07550); experiment: beta2AR agonists driving receptor internalization, dose response, cell-based, FAP fluorogen, flow cytometry, cherry pick 1 (AID 588763); type: functional
[6] = inhibitors of SNCA 5'UTR-driven reporter translation, confirmation, H4 neuroglioma cells, luminescence (AID 1988); type: functional, cell-based
[7] = HepG2 cell cytotoxicity, dose response, cytotoxicity control for Shn3 inhibitor project, CellTiter-Glo, cherry-picked (AID 624134); type: functional, cell-based
[8] = target: T3, Microphthalmia-associated transcription factor (Homo sapiens, UniProt O75030); experiment: TRPM1 promoter luciferase signal decrease, dose response, MITF inhibitor project, cell-based, SK-MEL-5, cherry-picked, set 3 (AID 493073); type: functional
T3 sequence (O75030 whole entry): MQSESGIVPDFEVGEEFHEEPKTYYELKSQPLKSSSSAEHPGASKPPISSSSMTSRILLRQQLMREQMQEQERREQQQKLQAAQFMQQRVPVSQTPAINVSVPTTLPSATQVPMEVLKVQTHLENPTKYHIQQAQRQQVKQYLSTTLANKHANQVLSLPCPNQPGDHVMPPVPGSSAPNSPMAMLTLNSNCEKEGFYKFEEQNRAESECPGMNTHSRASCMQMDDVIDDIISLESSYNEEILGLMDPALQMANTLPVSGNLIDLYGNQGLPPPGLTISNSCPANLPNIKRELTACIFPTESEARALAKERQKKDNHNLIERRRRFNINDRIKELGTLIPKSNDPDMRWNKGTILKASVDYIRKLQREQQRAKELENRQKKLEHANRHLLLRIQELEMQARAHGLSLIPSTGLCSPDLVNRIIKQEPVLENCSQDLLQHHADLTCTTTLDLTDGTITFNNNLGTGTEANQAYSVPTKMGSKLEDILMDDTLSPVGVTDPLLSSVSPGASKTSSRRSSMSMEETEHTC

[9] = target: T2, Beta-2 adrenergic receptor; experiment: Dose response for HTS for Beta-2AR agonists via FAP method from Powderset1.; type: functional
[10] = system: HEK293; experiment: SAR Analysis of small molecule inhibitors of T-cell specific antigen receptor-induced NF-kB activation in a HEK-293T cell line using a luminescence assay - Set 2. [Related pubchem assays (depositor defined):AID435003, AID435012, AID489026]; type: functional, cell-based; conditions: Homo sapiens
[11] = inhibitors of firefly luciferase expression or activity, dose response, H4 neuroglioma cells, luminescence (AID 1990); type: functional, cell-based
[12] = Shn3 3'UTR reporter inhibitors, dose response, cell-based, Clone20 osteoblasts, firefly luciferase, cherry-picked (AID 624132); type: functional;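 also: firefly luciferase luminescence from reporter carrying the Shn3 3'UTR in osteoblasts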
[13] = control 3'UTR Renilla luciferase suppression, dose response, counter-screen for Shn3 inhibitor project, cell-based, Clone20-Shn3RL, cherry-picked (AID 624133); type: functional
[14] = target: T4, Nuclear receptor subfamily 0 group B member 1 (Homo sapiens, UniProt P51843); experiment: Luminescence-based cell-based high throughput dose response assay for inhibitors of the orphan nuclear receptor subfamily 0, group B, member 1 (DAX1; NR0B1). [Related pubchem assays (depositor defined):AID504766, AID504790]; type: functional
T4 sequence (P51843 whole entry): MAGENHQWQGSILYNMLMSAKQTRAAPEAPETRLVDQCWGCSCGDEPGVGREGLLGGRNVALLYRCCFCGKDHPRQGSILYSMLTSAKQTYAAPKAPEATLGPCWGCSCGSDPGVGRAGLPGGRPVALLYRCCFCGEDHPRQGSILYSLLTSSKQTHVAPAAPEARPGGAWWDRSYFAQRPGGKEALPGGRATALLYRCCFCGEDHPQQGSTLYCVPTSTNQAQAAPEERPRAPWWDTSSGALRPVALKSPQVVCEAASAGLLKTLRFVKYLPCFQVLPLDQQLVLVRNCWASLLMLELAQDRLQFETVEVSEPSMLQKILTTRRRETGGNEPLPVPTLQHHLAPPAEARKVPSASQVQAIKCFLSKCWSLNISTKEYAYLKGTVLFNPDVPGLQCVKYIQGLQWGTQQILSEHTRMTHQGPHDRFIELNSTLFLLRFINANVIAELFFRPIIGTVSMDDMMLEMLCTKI

[15] = system: HEK293; experiment: cells; type: functional, cell-based; conditions: Homo sapiens
[16] = target: T5, Hexokinase-1 (Homo sapiens, UniProt P19367); experiment: SAR analysis of small molecule inhibitors of hexokinase domain containing I (HKDC1) in the hexokinase 1 selectivity assay. [Related pubchem assays (depositor defined):AID493160, AID493190]; type: functional
T5 sequence (P19367 whole entry): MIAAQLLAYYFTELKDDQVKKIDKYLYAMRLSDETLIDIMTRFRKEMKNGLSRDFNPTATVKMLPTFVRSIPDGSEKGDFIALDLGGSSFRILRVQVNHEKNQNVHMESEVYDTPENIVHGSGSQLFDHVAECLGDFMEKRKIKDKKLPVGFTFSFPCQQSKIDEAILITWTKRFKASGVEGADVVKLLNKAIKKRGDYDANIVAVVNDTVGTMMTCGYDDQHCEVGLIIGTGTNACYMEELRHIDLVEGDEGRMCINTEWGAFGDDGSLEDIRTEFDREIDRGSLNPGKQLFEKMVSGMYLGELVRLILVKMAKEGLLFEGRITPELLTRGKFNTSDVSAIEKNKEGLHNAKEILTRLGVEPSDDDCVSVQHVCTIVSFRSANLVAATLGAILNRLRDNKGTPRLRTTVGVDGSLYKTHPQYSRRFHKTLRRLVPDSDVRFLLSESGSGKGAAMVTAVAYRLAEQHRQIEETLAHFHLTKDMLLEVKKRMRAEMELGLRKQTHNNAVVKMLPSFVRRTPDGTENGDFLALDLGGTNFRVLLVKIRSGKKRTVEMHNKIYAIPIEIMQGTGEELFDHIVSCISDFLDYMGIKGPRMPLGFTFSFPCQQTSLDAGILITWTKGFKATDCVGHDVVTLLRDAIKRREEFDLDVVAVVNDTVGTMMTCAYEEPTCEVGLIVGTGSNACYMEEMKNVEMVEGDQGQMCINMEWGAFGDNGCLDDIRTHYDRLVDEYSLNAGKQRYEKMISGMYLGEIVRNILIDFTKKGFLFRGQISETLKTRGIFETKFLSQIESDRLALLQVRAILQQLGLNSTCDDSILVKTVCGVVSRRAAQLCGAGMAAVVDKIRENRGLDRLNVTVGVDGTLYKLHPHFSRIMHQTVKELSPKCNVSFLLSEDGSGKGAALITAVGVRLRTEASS

[17] = target: T6, Hexokinase HKDC1 (Homo sapiens, UniProt Q2TB90); experiment: SAR analysis of small molecule inhibitors of hexokinase domain containing I (HKDC1). [Related pubchem assays (depositor defined):AID493160, AID493190]; type: functional
T6 sequence (Q2TB90 whole entry): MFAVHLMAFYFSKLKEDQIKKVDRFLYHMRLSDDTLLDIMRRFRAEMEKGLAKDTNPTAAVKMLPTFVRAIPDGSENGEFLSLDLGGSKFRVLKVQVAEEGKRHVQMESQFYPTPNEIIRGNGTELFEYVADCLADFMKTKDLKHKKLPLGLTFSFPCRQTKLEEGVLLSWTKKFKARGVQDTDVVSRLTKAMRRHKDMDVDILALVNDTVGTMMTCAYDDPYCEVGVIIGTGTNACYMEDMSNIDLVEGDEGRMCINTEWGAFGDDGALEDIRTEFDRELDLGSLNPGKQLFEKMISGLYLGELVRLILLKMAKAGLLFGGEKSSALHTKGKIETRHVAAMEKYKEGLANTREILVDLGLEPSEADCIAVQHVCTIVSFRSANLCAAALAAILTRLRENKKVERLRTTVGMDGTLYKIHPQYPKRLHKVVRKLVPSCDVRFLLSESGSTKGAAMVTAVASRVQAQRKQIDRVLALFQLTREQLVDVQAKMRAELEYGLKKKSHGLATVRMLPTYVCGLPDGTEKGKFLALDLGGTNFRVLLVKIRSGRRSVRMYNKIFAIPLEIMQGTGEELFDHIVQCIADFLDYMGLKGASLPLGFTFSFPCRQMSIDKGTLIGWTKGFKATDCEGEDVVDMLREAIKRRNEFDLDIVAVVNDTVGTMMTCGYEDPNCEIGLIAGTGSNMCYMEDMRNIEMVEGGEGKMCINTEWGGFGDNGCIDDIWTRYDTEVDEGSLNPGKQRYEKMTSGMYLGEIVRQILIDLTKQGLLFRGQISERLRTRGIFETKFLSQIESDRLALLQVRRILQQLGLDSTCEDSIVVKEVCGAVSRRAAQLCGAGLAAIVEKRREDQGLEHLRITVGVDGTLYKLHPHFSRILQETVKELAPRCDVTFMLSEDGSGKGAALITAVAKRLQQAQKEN

T2 sequence (P07550 whole entry): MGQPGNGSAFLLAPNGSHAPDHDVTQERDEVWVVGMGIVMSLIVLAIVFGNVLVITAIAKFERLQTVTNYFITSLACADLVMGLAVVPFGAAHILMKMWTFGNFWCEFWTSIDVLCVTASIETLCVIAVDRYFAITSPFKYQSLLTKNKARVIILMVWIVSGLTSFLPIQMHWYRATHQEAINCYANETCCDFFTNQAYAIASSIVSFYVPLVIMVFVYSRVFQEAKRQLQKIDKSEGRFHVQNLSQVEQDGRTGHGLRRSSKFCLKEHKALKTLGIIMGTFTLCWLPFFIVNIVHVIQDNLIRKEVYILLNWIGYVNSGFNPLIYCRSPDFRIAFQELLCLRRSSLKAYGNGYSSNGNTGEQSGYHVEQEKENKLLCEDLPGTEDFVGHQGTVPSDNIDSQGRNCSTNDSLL

SMILES: O=C(Nc1ccc(-c2nc3ncccc3o2)cc1)c1ccc([N+](=O)[O-])o1
- EC50 [1]: 7.12 µM (active)
- IC50 [2]: > 79 µM (inactive)
- IC50 [3]: > 80 µM (inactive)
- EC50 [4]: > 120 µM (not active)
- EC50 [5]: 0.636 µM (active)
- EC50 [6]: > 60 µM (not active)
- AC50 [7]: 22.6 µM (active)
- AC50 [8]: 3.63 µM (active)
- EC50 [9]: 0.152 µM (active)
- IC50 [10]: > 80 µM (inactive)
- EC50 [11]: > 120 µM (not active)
- AC50 [12]: 1.34 µM (active)
- AC50 [13]: 11 µM (active)

SMILES: COc1cccc(CNC(=O)CN(C)S(=O)(=O)c2ccc(Br)s2)c1
- IC50 [14]: > 67.5 µM (inactive)
- IC50 [15]: 24.6 µM (inactive)

SMILES: O=C(Nc1cccc(C(F)(F)F)c1)c1cccc(NC(=O)c2ccc3ccccc3n2)c1
- IC50 [16]: > 80 µM (inactive)
- IC50 [17]: > 80 µM (inactive)
